Assay results as given in US10857155B2, “Compounds targeting proteins, compositions, methods, and uses thereof” (BioTheryX, Inc., priority 2017, dated 2020).

What was measured:
Type in all cases: cell-based
TNF-α = assay: TNF-alpha in LPS-induced PBMCs / CD14+ monocytes, Meso Scale assay; conditions: 0.1 μM
Experimental: FIG. 4 represents the activity against TNF-alpha in CD14, monocytes, plated in 96 well plates and pretreated with Compounds 1, 2, or 3, or pomalidomide, for 1 h and then induced with 100 ng/mL LPS for 18-24 h. Cytokines were measured according to MesoScale protocol. The negative control wells were treated with DMSO. Cells were treated with compound (at the indicated concentrations) or 10 μM pomalidomide. Compound activity was measured as a percentage of LPS-induced activity.
(§1) Either frozen primary blood mononuclear cells (PBMCs) or frozen CD14+ mobilized peripheral blood monocytes were purchased from AllCells (PB003F, Normal Peripheral Blood MNC (Alameda, Calif.)). Cells were quick thawed, washed 1-time with RPMI-1640 (10% FBS/1% Pen-Strep) and plated in 96 well plates at 200,000 cells per well. Cells were pretreated with DMSO only, pomalidomide or the indicated compounds for 1 h and then induced with 100 ng/mL lipopolysaccharide (LPS) for 18-24 h. The supernatant was analyzed for IL-1 beta, IL-6, and TNF-alpha, using Meso Scale assay according to manufacturer's protocol. The negative control wells were treated with DMSO.
(§2) Compound activity is measured as fold difference from the DMSO control. Compounds 1, 2, and 3 each reduced expression of IL-1-b in LPS-stimulated PBMCs by over 80% at 1 uM, relative to a just under 80% reduction with pomalidomide at 10 μM (FIG. 2).

IL-1β = assay: IL-1 beta in LPS-induced PBMCs / CD14+ monocytes, Meso Scale assay; conditions: 0.1 μM
Experimental: FIG. 2 represents the activity against IL-1-beta in CD14 monocytes, plated in 96 well plates and pretreated with Compounds 1, 2, or 3, or pomalidomide, for 1 h and then induced with 100 ng/mL LPS for 18-24 h. Cytokines were measured according to MesoScale protocol. Negative control wells were treated with DMSO. Compound activity was measured as a percentage of LPS-induced activity.
as §1, §2

H1048 cells = assay: Cell viability assay (CellTiter-Glo), H1048 cells; conditions: Homo sapiens, NCI-H1048, 72 h, 3 days; for viability at 1 µM: H1048, 1 μM; for viability at 10 µM: H1048, 10 μM
Experimental: (§3) Molm-13 cells were cultivated in RPMI-1640 (10% FBS/1% pen-strep) and were plated in white walled 96-well plates at 20,000 cells/well. H1048 cells were cultured in DMEM:F12 media supplemented with 5% fetal bovine serum, insulin, transferrin, sodium selenite, hydrocortisone, estradiol, penicillin and streptomycin, and were plated in white walled 96-well plates at 20,000 cells/well.
(§4) Cells were treated with compound at the indicated concentration or DMSO (control) and the cultures were incubated for 3 days at 37° C. and 5% CO2. Following the incubation period, 100 μL of CellTiterGlow (CTG) reagent (CellTiter-Glo® Luminescent Cell Viability Assay, Promega (Madison, Wis.)) was added to each well. Following a 10 min incubation with shaking, luminescence was measured using a Victor Wallac Luminometer.

GSPT1 = target: T1, GSPT1 (Homo sapiens, UniProt P15170); assay: Western blot analysis of GSPT1 protein levels in Jurkat cells; conditions: DMSO = 100.00; for GSPT1 protein level (% of DMSO control) at 0.1 µM: 100 nM compound; for GSPT1 protein level (% of DMSO control) at 1 µM: 1 uM compound
T1 construct: Whole cell extract was prepared with RIPA buffer according to manufacturer's protocol; endogenous in cells; host or cells: Jurkat cells
Experimental: FIG. 1 represents the activity against CK1α, ikaros, and GPST1 in Jurkat cells, plated in 96 well plates. Cells were pretreated with compounds for 4 h and then lysed and protein levels measure via Western blots. The negative control wells were treated with DMSO. Cells were treated with the indicated compound at the indicated concentration. Compound activity is measured as a decrease in GSPT1 protein levels.
Western Blot Protocol: Cell lines were grown in RPMI 1640 supplemented with streptomycin, penicillin and 10% fetal bovine serum.
Jurkat cells were cultured at approximately 10^6 cells per mL, DMSO or the indicated compound was added to the cells and allowed to incubate for 6-8 h. Whole cell extract was prepared with RIPA buffer according to manufacturer's protocol (Pierce (Dallas, Tex.)). Briefly, ˜2×10^6 cells were washed once in PBS, the cell pellet was resuspended in RIPA buffer and allowed to incubate for 15 min on ice. Cell debris was removed by centrifugation and the cleared whole cell lysate was transferred to a new tube for further analysis.
For western blot analysis, whole cell extracts were separated on 4-12% SDS-polyacrylamide gels, transferred to nitrocellulose and probed with the indicated primary antibodies. Membranes were subsequently washed and probed with the appropriate horseradish peroxidase (HRP)-conjugated secondary antibody. Membranes were subsequently washed and probed with the appropriate IRDye secondary antibodies (LI-COR). The signal was detected using the Odyssey Imaging System (LI-COR).

Molm-13 cells = assay: Cell viability assay (CellTiter-Glo), Molm-13 cells; conditions: Homo sapiens, 72 h, 3 days; for viability at 10 µM: MOLM-13, 10 μM; for viability at 1 µM: MOLM-13, 1 μM
Experimental: FIG. 5 represents antiproliferative activity in Molm-13 cells. The cells were incubated with Compound 1, 2, or 3 (at the indicated concentration), DMSO, or pomalidomide. Compound activity was measured based on the signal from remaining viable cells.
as §3, §4

IL-2 = IL-2 in PBMCs on anti-human CD3 (OKT3) coated plates, Mesoscale analysis; conditions: PBMC, 24 h, 0.1 μM, relative to DMSO control, read-out: Fold Change IL-2
Experimental: For the IL-2 analysis, 96 well plates were precoated with 1 μg/mL anti-human CD3 antibody (OKT3, eBioscience Inc., San Diego, Calif.). After washing with PBS, compounds were added (50 μL/well) followed by PBMCs diluted at 3-4 million cells/mL (150 μL/well). Plates were incubated for 24 h and the supernatants collected for Mesoscale IL-2 analysis.
as §2

IL-6 = IL-6 in LPS-induced PBMCs / CD14+ monocytes, Meso Scale assay; conditions: 0.1 μM
Experimental: FIG. 3 represents the activity against IL-6 in CD14, monocytes, plated in 96 well plates and pretreated with Compounds 1, 2, or 3, or pomalidomide, for 1 h and then induced with 100 ng/mL LPS for 18-24 h. Cytokines were measured according to MesoScale protocol. Negative control wells were treated with DMSO. Cells were treated with compound (at the indicated concentrations) or 10 μM pomalidomide. Compound activity was measured as a percentage of LPS-induced activity.
as §1, §2

T1 sequence (P15170 whole entry): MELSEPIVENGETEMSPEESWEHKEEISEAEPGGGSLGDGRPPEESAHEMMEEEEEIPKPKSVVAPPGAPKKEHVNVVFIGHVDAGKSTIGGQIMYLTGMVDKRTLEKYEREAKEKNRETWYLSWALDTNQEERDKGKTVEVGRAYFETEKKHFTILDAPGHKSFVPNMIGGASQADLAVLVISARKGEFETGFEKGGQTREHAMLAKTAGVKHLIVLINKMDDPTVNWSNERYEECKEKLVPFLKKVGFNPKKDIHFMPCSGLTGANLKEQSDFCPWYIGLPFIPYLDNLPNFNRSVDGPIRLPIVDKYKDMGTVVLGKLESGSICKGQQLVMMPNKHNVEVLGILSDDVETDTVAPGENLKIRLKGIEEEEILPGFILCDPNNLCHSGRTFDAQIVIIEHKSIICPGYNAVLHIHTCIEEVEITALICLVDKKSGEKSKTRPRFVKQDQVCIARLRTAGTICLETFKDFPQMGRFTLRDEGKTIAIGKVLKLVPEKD

Compound | inhibition at 0.1 µM (TNF-α) [%] | inhibition at 0.1 µM (IL-1β) [%] | viability at 1 µM (H1048 cells) [%] | viability at 10 µM (H1048 cells) [%] | GSPT1 protein level (% of DMSO control) at 0.1 µM (GSPT1) [%] | GSPT1 protein level (% of DMSO control) at 1 µM (GSPT1) [%] | viability at 10 µM (Molm-13 cells) [%] | fold induction at 0.1 µM (IL-2) | inhibition at 0.1 µM (IL-6) [%] | viability at 0.5 µM (Molm-13 cells; MOLM-13, 0.5 μM) [%] | viability at 1 µM (Molm-13 cells) [%]
Cc1ccc(NC(=O)NCc2cccc3c2CN([C@H]2CCCC(=O)NC2=O)C3=O)cc1Cl [Compound 17, (S)-1-(3-chloro-4-methylphenyl)-3-((2-(2,7-dioxoazepan-3-yl)-1-oxoisoindolin-4-yl)methyl)urea] | 18 | 19 | 95.5 | 34.9 | 131 | 80.5 | 91 | 1.3 | 0 | – | –
Cc1ccc(CNC(=O)NCc2ccc3c(c2)CN([C@H]2CCCC(=O)NC2=O)C3=O)cc1Cl [Compound 18, (S)-1-(3-chloro-4-methylbenzyl)-3-((2-(2,7-dioxoazepan-3-yl)-1-oxoisoindolin-5-yl)methyl)urea] | 48 | 53 | 14.2 | 4.28 | 69.7 | 20.2 | – | 1.5 | 41 | 68 | –
Cc1ccc(CCNC(=O)NCc2ccc3c(c2)CN([C@H]2CCCC(=O)NC2=O)C3=O)cc1Cl [Compound 19, (S)-1-(3-chloro-4-methylphenethyl)-3-((2-(2,7-dioxoazepan-3-v)-1-oxoisoindolin-5-yl)methyl)urea] | 33 | 37 | 8.26 | 3.09 | – | 26.8 | – | 1.2 | 17 | – | 79
Cc1ccc(CNC(=O)NCc2cccc3c2CN([C@H]2CCCC(=O)NC2=O)C3=O)cc1Cl [Compound 20, (S)-1-(3-chloro-4-methylbenzyl)-3-((2-(2,7-dioxoazepan-3-yl)-1-oxoisoindolin-4-yl)methyl)urea] | 11 | 12 | 98.5 | 96.2 | 126 | 160 | 23 | 1.1 | 7 | – | –
Cc1ccc(N(C)C(=O)NCc2ccc3c(c2)CN([C@H]2CCCC(=O)NC2=O)C3=O)cc1Cl [Compound 21, (S)-1-(3-chloro-4-methylphenyl)-3-((2-(2,7-dioxoazepan-3-yl)-1-oxoisoindolin-5-yl)methyl)-1-methylurea] | 20 | 27 | 95.5 | 45.3 | 126 | 134 | 25 | 0.9 | 18 | – | –
Cc1ccc(NC(=O)NCc2cc3c(cc2F)C(=O)N([C@H]2CCCC(=O)NC2=O)C3)cc1Cl [Compound 22, (S)-1-(3-chloro-4-methylphenyl)-3-((2-(2,7-dioxoazepan-3-yl)-6-fluoro-1-oxoisoindolin-5-yl)methyl)urea] | 74 | 82 | 11.5 | 4.04 | 22.1 | 5.56 | – | 2 | 58 | – | 2.45
Cc1ccc(NC(=O)NCCc2cccc3c2CN([C@H]2CCCC(=O)NC2=O)C3=O)cc1Cl [Compound 23, (S)-1-(3-chloro-4-methylphenyl)-3-(2-(2-(2,7-dioxoazepan-3-yl)-1-oxoisoindolin-4-yl)ethyl)urea] | 25 | 21 | – | 25.1 | 147 | 105 | 96 | 0.8 | 0 | – | –
Cc1ccc(NC(=O)NCCc2ccc3c(c2)CN([C@H]2CCCC(=O)NC2=O)C3=O)cc1Cl [Compound 24, (S)-1-(3-chloro-4-methylphenyl)-3-(2-(2-(2,7-dioxoazepan-3-yl)-1-oxoisoindolin-5-yl)ethyl)urea] | 42 | 26 | – | 2.81 | 122 | 126 | 98 | 0.9 | 0 | – | –
O=C1CCC[C@H](N2Cc3cc(CNC(=O)C(F)(F)c4ccc(F)cc4)ccc3C2=O)C(=O)N1 [Compound 25, (S)—N-((2-(2,7-dioxoazepan-3-yl)-1-oxoisoindolin-5-yl)methyl)-2,2-difluoro-2-(4-fluorophenyl)acetamide] | 36 | 38 | 88.1 | 26.6 | 98.1 | 63.5 | 96 | 1.4 | 12 | – | –
